The subject of data set [1] is quinone reductase (NQO1) in Hepa 1c1c7 murine hepatoma cells. The conditions noted are these: for comparison; cited from earlier work.
The next data set concerns HCT-116 colon carcinoma. The experiment in a line: Cytotoxicity against solid tumor cells, CCK-8, 72 hrs (Table 4). It is filed as cell-based. The following applies: Homo sapiens. Here is the method: (§1) Compounds are also evaluated against A-549 lung carcinoma and SK-OV-3 ovarian adenocarcinoma cell lines using the methodology as for Table 3. The potency order for the compounds may vary in different tumor cell lines. […] Absorbance was measured using a Powerwave XS microplate spectrophotometer.

A further data set deals with MX-1 mammary carcinoma. The data set is described as above. The class given is cell-based. The following applies: Homo sapiens. Here is the method: as §1
In a further data set the test system is A-549 lung carcinoma. The experiment in a line: Cytotoxicity against solid tumor cells (Table 4). It is filed as cell-based. The following applies: Homo sapiens, A549, CCK-8, 72 hrs. As to the method: as §1
In data set [2] the test system is SK-OV-3 ovarian adenocarcinoma. The experiment in a line: Cytotoxicity against solid tumor cells (Table 4). The class given is cell-based. The conditions noted are these: Homo sapiens, CCK-8, 72 hrs. As to the method: as §1
Data set [3] has as its system CCRF-CEM/VBL100 vinblastine-resistant cells. The data set can be described thus: In vitro cytotoxicity against vinblastine-resistant CCRF-CEM subline. The following applies: for IC50: Homo sapiens, CCRF-CEM, 72 h, CCK-8, 72-hr incubation, read-out: IC50 CCRF-CEM/Vinblastine. The class given is cell-based, human. Here is the method: The cytotoxicity IC50 of each compound was measured with the XTT assay using the 2,3-bis(2-methoxy-4-nitro-5-sulfophenyl)-5-[(phenylamino)carbonyl]-2H-tetrazolium hydroxide (XTT) microculture method as described in Scudiero et al., Cancer Res., 48:4827 (1988), the contents of which are hereby incorporated by reference in their entirety. The CCK-8 assay is a cell counting kit-8 (CCK-8) tetrazolium assay using a 96-well microplate (Dojindo Molecular Technologies, Inc., Rockville, Md.) (M. Ishiyama et al., Biol. Pharm. Bull. 19: 1518, 1996). Absorbance was measured by Powerwave a XS microplate spectrophotometer. This method described is considered a general method in vitro cytotoxicity studies.
(§2) The data in Tables 2X, 3A-E, 4, 5, and 6 were obtained using the cell counting kit-8 (CCK-8) tetrazolium assay in a 96-well microplate. Five to seven concentrations of each compound in triplicate were used, and the IC50 values were determined by CompuSyn software automation (Chou T C. and Martin N. ComboSyn, Inc., 2006) based on the median-effect equation and plot (Chou T C. J. Theor. Biol. 59:235-276, 1976; Chou T C. Pharmacol. Rev. 58: 621-681, 2006). […] The r value defines the correlation coefficient of the median-effect plot which signifies the conformity to the mass-action law principle (Chou T C. J. Theor. Biol. 59:235-276, 1976; Chou T C. Pharmacol. Rev. 58:621-681, 2006). These parameters were determined by CompuSyn simulation (available at http://www.combosyn.com).
CCRF-CEM human T-cell acute lymphoblastic leukemia cells and the corresponding vinblastine-resistant cells (CCRF-CEM/VBL100) were cultured at an initial density of 5×10^4 cells per milliliter. The cultured cells were maintained in a 5% CO2-humidified atmosphere at 37° C. in RPMI medium 1640 (GIBCO/BRL) containing penicillin (100 units/mL), streptomycin (100 μg/mL, GIBCO/BRL), and 10% heat-inactivated fetal bovine serum. The cytotoxicity of each Compound of the invention was measured using the 2,3-bis(2-methoxy-4-nitro-5-sulfophenyl)-5-[(phenylamino)carbonyl]-2H-tetrazolium hydroxide (XTT) microculture method as described in Scudiero et al., Cancer Res., 48:4827 (1988), the contents of which are hereby incorporated by reference in their entirety.
(§3) Absorbance was measured by Powerwave XS microplate spectrophotometer.

Data set [4] has as its system human mammary carcinoma MX-1 xenograft. The data set can be described thus: Therapeutic effect and body weight in nude mice bearing MX-1 xenograft, single agents.
Description: FIGS. 1A and 1B show the therapeutic, anti-cancer effects of various dosage regimens of panaxytriol and Compound (A), respectively, given by i.v. injection in nude mice bearing human mammary carcinoma MX-1 xenograft tumors, which is an in vivo model for breast cancer. […] The compounds were administered starting on day 8.
An in vivo assay uses male athymic nude mice bearing the nu/nu gene (6 weeks of age or older, weighing between 20 and 22 g, obtainable from NCl, Frederick, Md.) into which one or more human tumor xenografts are been implanted.
Nude mice having human mammary carcinoma xenograft MX-1 were treated with panaxytriol or Compound (A) at various dosages through the slow i.v. infusion protocol by Chou et al. (Chou, T. C., et al, Proc. Natl. Acad. Sci. U.S.A. 95: 15798 (1998), the contents of which are herein incorporated by reference in their entirety).
Data set [5] relates to human lymphoblastic leukemic T-cell growth. The experiment in a line: Cytotoxic activity relative to stability during storage at −20° C. in DMSO (Table 10). The following applies: for IC50: Homo sapiens, CCRF-CEM, 72 h, Table 10, XTT, 72 hr. It is filed as cell-based. The text has this:
Without wishing to be bound by theory, the oxidized versions may be active metabolites. This theory provides an explanation of the delayed onset of therapeutic effects seen in the figures herein. The oxidized compounds may be active agents that are formed slowly upon metabolic oxidation. […] The active metabolites may explain the biphasic pharmacological properties of panaxytriol or Compound D that have been observed (FIGS. 9B, C, D; FIGS. 11D, E, F, and FIGS. 12D, E). […] Induction of the phase 2 enzymes may slow oxidation of the compounds (Ng et al., Tetrahedron Letters. 49: 7178-7179 (2008)).
For orientation: Tetrazolium assays rely on reduction of a dye to a coloured formazan, in cell work by metabolically active cells.

The subject of data set [6] is CCRF-CEM human T-cell acute lymphoblastic leukemia cells. The experiment in a line: In vitro cytotoxicity against CCRF-CEM (XTT / CCK-8 tetrazolium assay, 72 hr). The following applies: for IC50: Homo sapiens, CCRF-CEM.
A further data set has as its system human PBMC lymphocytes. The data set can be described thus: DNA synthesis ([3H]thymidine incorporation) in human PBMC lymphocytes (FIG. 8). The class given is cell-based. The text has this: FIG. 8 show the effects of PHA and different concentrations of compounds of the invention, at different time points, on the proliferation of a culture of human lymphocytes as measured by DNA synthesis through incorporation of radiolabeled thymidine into the DNA.
The main principle and method of experiments for human PBMC lymphocytes and for mouse splenocytes stimulations were the same, since both measure immunological cell stimulation by PHA, PXT and compounds of the invention. Both the lymphocyte and the splenocyte assays measure the ^3H-dThd tracer as an indication of DNA synthesis. For PBMC lymphocytes (FIGS. 9A-9G), the experimental methods are those for splenocytes disclosed in Example 24 (FIGS. 11A-11F; FIGS. 12A-12E), except 0.282×10^6 PBMC lymphocyte cells in 198.5 μl was used, and the experimental incubation time was extended to 120 hr.
Briefly, to generate the data in Tables 8A and 8B, the compounds were tested in a [^3H] thymidine uptake experiment using PBMC human lymphocytes obtained from the New York Blood Center. PBMC human lymphocytes were exposed to compounds at 0.03, 0.1, 0.3, and 1.0 μM for 24 hours, and examined for increased [^3H] thymidine uptake. Human lymphocytes were also exposed to compounds for an extended time, e.g., 48 hrs and 72 hrs, instead of 24 hrs, in the [^3H] thymidine uptake assay, and examined to determine the extent of increased [^3H] thymidine uptake to determine if extended exposure will further increase the immune-enhancing effects of the compounds. Increased [^3H] thymidine uptake is interpreted as increased DNA synthesis, which indicates cell growth and division. In the case of immune system cells, this should result in an immune-enhancing effect. The compounds are compared by their IC50 values and/or their effect on [^3H] thymidine uptake at a given concentration and/or time point.

In data set [7] the test system is CCRF-CEM subline resistant to TAXOL. The data set can be described thus: In vitro cytotoxicity against TAXOL-resistant CCRF-CEM subline. It is filed as cell-based, human. The following applies: Homo sapiens, CCRF-CEM; Table 3D; CCK-8, 72-hr incubation; read-out: IC50 CCRF-CEM/TAXOL. As to the method:
as §2, §3

For data set [8] the following is noted: mouse, in vivo. As to the method: The experimental procedure for FIG. 14 was carried out similarly to that in FIG. 1. * means P<0.1 and ** means P<0.05. Body weight was calculated as described for FIGS. 1 and 4-7.
The experiments were performed as indicated for FIG. 14, with Compound (K) being administered orally. Compound K was administered on the days indicated by the arrows at the top of the graph, and paclitaxel was administered on the days indicated by the arrows on the bottom of the graph. Body weight was calculated as described for FIGS. 1, 4-7, 14 and 15. * means P<0.1 and ** means P<0.05.

For data set [9], the system named is human colon carcinoma HCT-116 xenografts. The data set can be described thus: Compound D with Iso-Oxazole-Fludelone or Isodehydelone in nude mice bearing HCT-116 xenografts. The conditions noted are these: FIG. 15; Isodehydelone 6 hr-iv infusion, with or without oral Compound (D); n=7.
Data set [10] relates to human mammary carcinoma MX-1 xenografts. The conditions noted are these: nude, mouse, in vivo.
Setting [11] is: 72 h, read-out: IC50 CCRF-CEM, Table 3D, CCK-8, 72-hr incubation.
Where [12] appears, read: read-out: IC50 (in μM), cytotoxic potency against cancer cell line growth in vitro, Table 3C, cell line not given.

Read-outs that look alike come from different tables or passages of the source.

Take `C=Cc1c(C)c2cc3nc(c4c5[n-]c(cc6nc(cc1[n-]2)C(C)=C6CC)c(C)c5C(=O)[C@@H]4C(=O)OC)[C@@H](CCC(=O)OC/C=C(\C)CCC[C@H](C)CCC[C@H](C)CCCC(C)C)[C@@H]3C.[Mg+2]` [chlorophyll a]: in data set [1], the “reported CD value” is 250 µM and the reported inducer potency is recorded as 24,600 U/g.
Consider `C[S+]([O-])CCCCN=C=S` (centres unmarked) [sulforaphane], for which, in data set [1], the “reported CD value” is 0.2 µM and the reported inducer potency is recorded as 188,000,000 U/g.
For the compound `C=C[C@@H](O)C#CC#CC[C@H]1OC(C)(C)O[C@@H]1CCCCCCC` [Compound (A)], the IC50 in the data set on HCT-116 colon carcinoma is 1.28 µM; in the data set on MX-1 mammary carcinoma, 1.92 µM; in the data set on A-549 lung carcinoma, 3.95 µM; in [2] it was 3 µM; in data set [3] (Table 3D), 1.12 µM; in [5] (Aug. 22, 2003 (Stored), same solution kept at −20° C. in DMSO, read-out: IC50 in μM CCRF-CEM), 2.12 µM. Also, the IC50 in data set [5] (Aug. 22, 2003 (Stored), same solution kept at −20° C. in DMSO, read-out: IC50 in μM CCRF-CEM/VBL) came to 2.37 µM; in [5] (Jul. 25, 2003 (Fresh), read-out: IC50 in μM CCRF-CEM), 1.21 ± 0.03 µM; in data set [5] (Jul. 25, 2003 (Fresh), read-out: IC50 in μM CCRF-CEM/VBL), 1.22 ± 0.15 µM; in [6] (setting [11]), 0.803 µM. In addition, the “cross-resistance to TAXOL or vinblastine” value in [3] (TAXOL- or vinblastine-resistant (MDR) sublines) is given as “do not appear to be cross-resistant to TAXOL or vinblastine”. Moreover, the “fold resistance in brackets (IC50 CCRF-CEM/VBL vs CCRF-CEM)” value in [3] (Table 3) came out at 1.22 x. In addition, in data set [3] (Table 3A), the “fold resistance (IC50 CCRF-CEM/VBL vs parent CCRF-CEM)” value amounted to 1.4 fold. The “fold of cross-resistance (CCRF-CEM/Vinblastine vs parent cell line)” value in [3] (Table 3D, given as x or -fold) worked out at 1.4 fold. The “tumor suppression compared to the control tumor size” value in data set [4] (Day 24, i.v. injection Q2D, escalating doses from day 8, FIGS. 1A, 1B) was determined as 47.7%. Besides, the “antitumor effects against MX-1 xenografts” value in [4] (mouse, in vivo) was “antitumor effects”. Moreover, in data set [4] (mouse, in vivo), the “level inhibiting tumor growth (as low as)” value amounted to 10 mg/kg. For the same compound, the “anti-cancer activity in the in vitro cytotoxicity assay” value in data set [6] is reported as “active against cancer”. For the same compound, the “time of maximal stimulation of lymphocyte” value in the data set with human PBMC lymphocytes came to 120 h.
With `CCCCCCC[C@H]1OC(C)(C)O[C@@H]1CC#CC#CC(=O)CC` [Compound (J)], the IC50 in the data set with HCT-116 colon carcinoma stood at 1.09 µM; in the data set on MX-1 mammary carcinoma, 1.47 µM; in data set [7], 1.72 µM; in the data set on A-549 lung carcinoma, 12.6 µM; in data set [2], 13 µM; in data set [3] (Table 3D), 1.19 µM. The values for the IC50 in [6] (setting [11]) and in [6] (setting [12]) were 0.83 ± 0.26 µM and 0.83 µM, respectively.
For `CCCCCCC[C@H]1OC(C)(C)O[C@@H]1CC#CC#C[C@@H](O)CC` [Compound (K)], the IC50 in the data set on HCT-116 colon carcinoma is 3.17 µM; with MX-1 mammary carcinoma, 3.45 µM; in [7] it was 3.57 µM; in the data set on A-549 lung carcinoma, 1.02 µM; in data set [2], 4.03 µM; in data set [3] (Table 3D), 3.3 µM. For the same compound, the IC50 is 2.03 ± 0.13 µM in data set [6] (setting [11]) and 2.03 µM in [6] (setting [12]). Also, the “stability (shelf life)” value in data set [5] (compared with Compound D) was “more stable than Compound D”. Further, the “reduction of paclitaxel-induced general toxicity and neurotoxicity compared with Compound D” value in [8] is recorded as “superior to Compound D”. The “effect of oral administration on paclitaxel toxicity” value in [8] (po) was “orally effective in Reducing the Toxicity of paclitaxel and improving recovery after treatment”.
Regarding “iso-oxazole-dehydelone (17-isooxazole-dehydelone) [isodehydelone]”, the mice died entry in data set [9] is given as “Two”.
As to `O=c1[nH]cc(F)c(=O)[nH]1` [Compound 5FU, 5-fluoro-uracil], in [10], the mice died was 5/8.

The values above are taken from US8859615B2, “Compounds, compositions and methods for reducing toxicity and treating or preventing diseases” (priority 2008, dated 2014).
